Earlier results as cited in patent publication US9125900B2 (priority 2005, dated 2015).
Like-named read-outs stand apart in the source and are kept apart here.

Key:
5-HT4a receptor isoform = 5-HT4a receptor isoform (Homo sapiens, UniProt Q13639)
respiratory neurons [1] = conditions: for morphine-induced suppression of respiratory neuronal activity: anesthetized rats
respiratory neurons [2] = system: respiratory neurons
5-HT7 receptor = 5-HT7 receptor (Homo sapiens, UniProt P34969)
Sequence of 5-HT7 receptor (P34969 whole entry): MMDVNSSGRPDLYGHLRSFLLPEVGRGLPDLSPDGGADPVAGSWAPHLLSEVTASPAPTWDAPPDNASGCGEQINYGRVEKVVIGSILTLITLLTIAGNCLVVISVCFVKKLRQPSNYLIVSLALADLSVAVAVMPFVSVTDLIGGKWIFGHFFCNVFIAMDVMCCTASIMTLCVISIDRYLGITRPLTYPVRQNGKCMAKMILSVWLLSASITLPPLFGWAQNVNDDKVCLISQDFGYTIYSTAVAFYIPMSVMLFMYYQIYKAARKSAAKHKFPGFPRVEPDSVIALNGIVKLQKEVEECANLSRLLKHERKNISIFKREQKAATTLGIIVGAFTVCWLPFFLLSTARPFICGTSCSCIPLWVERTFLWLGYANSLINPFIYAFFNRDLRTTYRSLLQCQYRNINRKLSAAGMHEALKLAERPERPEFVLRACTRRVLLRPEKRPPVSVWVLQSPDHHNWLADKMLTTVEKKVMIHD

Sequence of 5-HT4a receptor isoform (Q13639 1-387 isoform Q13639-2): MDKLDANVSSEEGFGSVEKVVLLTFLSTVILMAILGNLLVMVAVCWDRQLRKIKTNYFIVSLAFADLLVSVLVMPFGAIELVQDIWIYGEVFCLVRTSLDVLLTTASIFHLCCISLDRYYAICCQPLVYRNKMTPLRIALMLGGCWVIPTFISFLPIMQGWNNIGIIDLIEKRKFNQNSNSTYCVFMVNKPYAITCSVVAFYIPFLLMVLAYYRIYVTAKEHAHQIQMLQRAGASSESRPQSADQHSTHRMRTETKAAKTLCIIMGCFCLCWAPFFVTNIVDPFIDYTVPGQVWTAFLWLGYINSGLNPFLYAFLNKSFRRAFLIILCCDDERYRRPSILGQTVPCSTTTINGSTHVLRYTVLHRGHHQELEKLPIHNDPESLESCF

Structure (SMILES) | receptor activity (5-HT4a receptor isoform) | depressant effects on respiratory neurons (respiratory neurons [1]; 100 μg/kg, rats) | morphine-induced suppression of respiratory neuronal activity (respiratory neurons [1]) | phrenic nerve discharges (respiratory neurons [2]; anesthetized cats, higher doses 50 and 90 μg/kg) | phrenic nerve discharges (respiratory neurons [2]; anesthetized cats, lower doses 10-50 μg/kg) | pentobarbital- and ketamine-induced suppression of respiratory neurons (respiratory neurons [2]; cats) | phrenic nerve discharges (respiratory neurons [2]; cats, 20 μg/kg intravenously) | respiratory frequency or ventilation rate (hypoxic goats) | receptor activity (5-HT7 receptor)
COc1cc(N)c(Cl)cc1C(=O)NC1CN2CCC1CC2.Cl (racemic) [zacopride, 4-amino-N-1-azabicyclo[2.2.2] oct-3-yl-5-chloro-2-methoxybenzamide hydrochloride] | agonist of the 5-HT4a receptor isoform | – | – | – | – | – | – | – | –
CCCN(CCC)C1CCc2cccc(O)c2C1 (racemic) [8-OH-DPAT, 8-hydroxy-2-(di-n-propylamino)tetralin] | – | no depressant effects on rat respiratory neurons | reversed the morphine-induced suppression of neuronal activity | suppressed phrenic nerve discharges | increased the frequency of phrenic nerve discharges | reverse pentobarbital- and ketamine-induced suppression of respiratory neurons | phrenic nerve discharges were decreased | did not increase respiratory frequency or ventilation rate | –
O=C1CC2(CCCC2)CC(=O)N1CCCCN1CCN(c2ncccn2)CC1 [buspirone] | – | – | reversed the suppression | – | – | – | – | – | no effect on the 5-HT7 receptor
